In publication PMC11591356, “Immunomodulatory Effects of the Tobacco Defensin NaD1” (Antibiotics, 2024):
Where two headings read alike, the source gives them in different places. Ends that are not written are not given here.

Columns and labels:
[1] = system: umbilical vein endothelial cells (HUVEC); design: method as in PMID 28179997; conditions: read-out: IC50, MTT cell viability assay; cited from earlier work
[2] = system: human dermal fibroblast cells (AHDF); design: method as in PMID 28179997; conditions: read-out: IC50, MTT cell viability assay; cited from earlier work
[3] = system: THP-1-derived macrophages; test: ELISA assay of cytokine production by THP-1-derived macrophages; assay type: cell-based, human
Procedure: THP-1 (ATCC TIB-202) cells were thawed and cultured in complete RPMI-1640, containing 10% FBS (Capricorn Scientific) and 1×AA solution in CO2-intubator. Monocytic THP-1 cells were differentiated into resting M0 macrophages by stimulation for 24 h with 100 ng/mL phorbol 12-myristate 13-acetate (PMA) in complete RPMI-1640. Then, the attached macrophage-like cells were washed out with culture medium without serum and incubated for another 48 h in PMA-free complete culture medium with 10% HS and 1×AA solution.
THP-1-derived macrophages were seeded into the wells of a 24-well plate at a density of 2.7 × 10^5 cells/well in complete RPMI-1640 with 10% HS and 1×AA solution. Then, 24 h later, the culture medium was replaced by the fresh complete RPMI-1640 containing lipopolysaccharide from Escherichia coli 0111:B4 (LPS, Sigma, St. Louis, MO, USA) or zymosan from the cell wall of Saccharomyces cerevisiae (Serva, Heidelberg, Germany) at concentrations of 1 or 10 μg/mL, respectively; antimicrobial peptides NaD1, Psd1, LL-37 or HBD2 at concentrations of 2 or 0.2 µM; and combinations of antimicrobial peptides with LPS or zymosan at the same concentrations. Insoluble zymosan was resuspended in sterile water and sonicated twice for 30 s; after that, the stock solution was heated to 80 °C for 20 min. Peptides were added 2 h before stimulation with LPS and zymosan. After that, PAMPs solutions were added and the cells were cultured for 24 h. Complete RPMI-1640 only was used in the control wells. Culture supernatants were collected and stored at −70 °C prior to the cytokines’ assessment.
The production of pro- and anti-inflammatory cytokines IL-1β, IL-6, TNF-α and IL-10 by stimulated and non-stimulated THP-1-derived macrophages were estimated by using ELISA kits (Vector-Best, Koltsovo, Russia). Briefly, 96-well plates with adsorbed monoclonal antibodies to the corresponding cytokine were used. Undiluted or diluted 5, 20 or 80 times in the case of IL-10, TNF-α and IL-1β or IL-6, respectively, culture supernatants from the wells of 24-well plates were taken for analysis. Biotinylated polyclonal antibodies to cytokines, streptavidin conjugated to HRP and TMB substrate were further used for the detection of immune complexes. A panel of calibration solutions containing different concentrations of cytokines was used in each experiment. Experiments were performed using two biological and two technical repeats. The release of the cytokines in the control and experimental samples was compared with an unpaired two-sample t-test using GraphPad Prism v.8.0.1 (GraphPad Software, Inc., San Diego, CA, USA). The p values ≤ 0.05 were considered significant.

[4] = system: Caco-2 cells not in a monolayer; conditions: 24 h, resazurin
Procedure: The cytotoxic effects of the tobacco defensin NaD1 towards PBMCs or Caco-2 cells were investigated in 96-well plates using the resazurin method as previously described. In brief, 4 × 10^5 per well Caco-2 cells not in a monolayer as well as Caco-2 cells in a monolayer in DMEM/F12 (1:1) medium with 10% FBS or 2 × 10^6 PBMCs per well in RPMI-1640 also with 10% FBS were incubated with serial dilutions of NaD1 at final concentrations from 0.39 to 50 μM or from 2.1 to 180 μM for 24 h. After that, resazurin (Sigma, St. Louis, MO, USA) was added at a final concentration of 70 µM and the plates were incubated overnight (16–18 h). Untreated cells and cells treated by non-ionogenic detergent Triton X-100 were used as negative and positive controls, respectively. […] The cell viability was estimated by resorufin fluorescence registered at […] via the following equation: cell viability (%) = (Fsample/Fcontrol) × 100%. Experiment was carried out twice in duplicate.

[5] = peptide 2 µM 2 h before LPS 1 μg/mL, 24 h, vs LPS alone
[6] = peptide 2 µM 2 h before zymosan 10 μg/mL, 24 h, vs zymosan alone

NaD1: Recombinant tobacco floral defensin NaD1 (UNIPROT Q8GTM0), obtained by heterologous expression in E. coli; FITC-labeled in the permeability assay (RECKTESNTFPGICITKPPCRKACISEKFTDGHCSKILRRCLCTKPC; cysteine pairing not given here; also: FITC label; UniProt Q8GTM0 26-72, looked up)
IC50 [1]: ~10 µM
IC50 [2]: ~10 µM
IL-10 production by M0 and M1 macrophages ([3]; elevation from 150 (without NaD1)): 180 pg/mL
IL-1β production by M0 and M1 macrophages ([3]; increase from 4500 (without NaD1)): 6500 pg/mL
LPS-induced IL-1β production [3, 5]: increased the LPS-induced production of IL-1β
LPS-induced IL-10 production [3, 5]: increased the LPS-induced production of IL-10
LPS-induced TNF-α secretion [3, 5]: reduced the LPS-induced secretion of TNF-α
IL-1β production in the presence of zymosan [3, 6]: induced the production of IL-1β (p <0.0001) more strongly than without this PAMP
IL-10 production in the presence of zymosan [3, 6]: increased the production of IL-10 in the presence of zymosan
IL-10 production, unstimulated macrophages ([3]; peptide 2 µM alone, vs unstimulated control): induced the production of IL-10
IL-1β production, unstimulated macrophages ([3]; peptide 2 µM alone, vs unstimulated control, two biological and two technical repeats): significantly increased IL-1β level
CC50 ([4]; calculated): 61.8 µM
Cell viability ([4]; peptide 53.3 µM): approximately 62%
Cell viability ([4]; peptide 180 μM): 8%
